Data: the supplement of paper PMC10307832

How the values were obtained:
Assay in all cases: relative viability (nuclei count vs DMSO), 5 days (fraction); higher = more cells survive
[1] = compound: C1=CC2=NC=CN=C2C=C1/C=C/3\C(=O)NC(=O)S3 + CCNC(=O)c1noc(-c2cc(C(C)C)c(O)cc2O)c1-c1ccc(CN2CCOCC2)cc1 [Luminespib] (partner 0.01 µM)
How it was run: (§1)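 The day after seeding in 1536-well plates, lung cancer cell lines were treated by pin tool with a single drug, or with a fixed anchor-drug dose together with five library-drug doses (not always all listed) in √10 steps. After 5 days, a combined fix-and-stain solution (final 0.05% Triton X-100, 1% formaldehyde, 1 ug/ml Hoechst) was added. Nuclei counted on 4× images gave relative viability as treated counts over vehicle counts, reported as the median of duplicate plates.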

BGJ398 + Trametinib = compound: CCN1CCN(c2ccc(Nc3cc(N(C)C(=O)Nc4c(Cl)c(OC)cc(OC)c4Cl)ncn3)cc2)CC1 [BGJ398] + CC(=O)Nc1cccc(-n2c(=O)n(C3CC3)c(=O)c3c(Nc4ccc(I)cc4F)n(C)c(=O)c(C)c32)c1 [Trametinib] (partner 0.02 µM)
How it was run: as §1

BGJ398 + Linsitinib = compound: CCN1CCN(c2ccc(Nc3cc(N(C)C(=O)Nc4c(Cl)c(OC)cc(OC)c4Cl)ncn3)cc2)CC1 [BGJ398] + C[C@]1(O)C[C@@H](c2nc(-c3ccc4ccc(-c5ccccc5)nc4c3)c3c(N)nccn32)C1 [Linsitinib] (partner 1 µM)
How it was run: as §1

BGJ398 + Decitabine = compound: CCN1CCN(c2ccc(Nc3cc(N(C)C(=O)Nc4c(Cl)c(OC)cc(OC)c4Cl)ncn3)cc2)CC1 [BGJ398] + Nc1ncn([C@H]2C[C@H](O)[C@@H](CO)O2)c(=O)n1 [Decitabine] (partner 2 µM)
How it was run: as §1

Cell Line	relative viability ([1]; first compound 0.02 µM)	relative viability ([1]; first compound 0.06325 µM)	relative viability ([1]; first compound 0.2 µM)	relative viability ([1]; first compound 0.6325 µM)	relative viability ([1]; first compound 2 µM)	relative viability (BGJ398 + Trametinib; first compound 0.01 µM)	relative viability (BGJ398 + Trametinib; first compound 0.03162 µM)	relative viability (BGJ398 + Trametinib; first compound 0.1 µM)	relative viability (BGJ398 + Trametinib; first compound 0.3162 µM)	relative viability (BGJ398 + Trametinib; first compound 1 µM)	relative viability (BGJ398 + Linsitinib; first compound 0.01 µM)	relative viability (BGJ398 + Linsitinib; first compound 0.03162 µM)	relative viability (BGJ398 + Linsitinib; first compound 0.1 µM)	relative viability (BGJ398 + Linsitinib; first compound 0.3162 µM)	relative viability (BGJ398 + Linsitinib; first compound 1 µM)	relative viability (BGJ398 + Decitabine; first compound 0.01 µM)	relative viability (BGJ398 + Decitabine; first compound 0.03162 µM)	relative viability (BGJ398 + Decitabine; first compound 0.1 µM)	relative viability (BGJ398 + Decitabine; first compound 0.3162 µM)	relative viability (BGJ398 + Decitabine; first compound 1 µM)
201T	1.04	1.04	1.04	1.02	0.986	0.817	0.696	0.688	0.643	0.693	1.17	1.08	1.07	1.06	1.01	0.958	0.814	0.835	0.797	0.807
A549											0.637	0.53	0.857	0.569	0.658	0.155	0.288	0.232	0.289	0.223
A-427	0.978	0.958	1	0.842	0.991	0.624	0.595	0.585	0.427	0.438	1.12	1.15	1.15	0.884	0.799	0.559	0.564	0.594	0.515	0.481
ABC-1		0.872	0.616	0.519	0.982						0.685	1.01	0.746	0.999	0.658	1.17	0.955	0.966		1.18
BEN	0.631	0.19	0.402	0.332	0.314	0.84	1.02	1.03	0.899	0.952	0.935	0.95	0.89	0.818	0.798	0.604	0.688	0.796	0.681	0.591
CAL-12T	0.456	0.417	0.686	0.623	0.234	0.302	0.428	0.315	0.404	0.308	0.774	0.782	0.882	0.773	0.756					
COR-L23	0.684	0.842	0.77	0.581	0.652	0.512	0.64	0.63	0.486	0.68	0.929	0.873	1.04	0.975	0.923	0.36	0.438	0.507	0.42	0.365
COR-L 105	0.727	0.997	0.816	0.695	0.618	0.423	0.431	0.444	0.399	0.431	0.824	1.09	0.851	0.777	0.8	0.636	0.587	0.637	0.601	0.69
Calu-6											0.932	0.969	0.901	0.922	0.952					
ChaGo-K-1	0.553	0.454	0.762	0.541	0.572	0.876	0.914	0.871	0.922	0.929						0.503	0.477	0.562	0.558	0.537
EBC-1											0.875	0.968	0.941	0.877	0.703					
EKVX	0.846	0.636	0.831	0.839	0.776	0.326	0.336	0.368	0.261	0.359	0.776	0.859	1.17	1.05	1.05	0.315	0.294	0.388	0.349	0.316
EMC-BAC-2	1.13	1.22	1.17	1.09	1.02	0.919	0.912	0.929	0.78	0.854	0.815	0.785	0.842	0.825	0.872	0.96	1.03	0.97	0.915	0.932
EPLC-272H	0.447	0.214	0.328	0.267	0.198	0.302	0.345	0.282	0.194	0.198	1.16	1.16	1.2	1	1.22	0.391	0.3	0.38	0.303	0.323
H3255	0.879	0.793	0.909	0.857	0.809	0.61		0.702		0.707	0.887	0.35	0.919	0.708	1.05	0.585		0.591		0.681
HARA	0.811	0.643	0.706	0.742	0.797	0.778	0.41	0.43	0.604	0.437	0.845	0.856	0.903	0.978	0.902	0.587	0.412	0.389	0.371	0.38
HCC-15	0.278	0.197	0.271	0.304	0.214	0.331	0.401	0.378	0.433	0.393	0.981	0.968	0.921	0.981	0.936	0.571	0.6	0.78	0.73	0.618
HCC-44	1	0.829	1.06	1.04	0.868	1.01	1.03	1.03	1.04	0.949	0.63	0.616	0.7	0.76	0.629	0.886	0.914	0.959	0.976	0.8
HCC-78						0.55	0.868	0.858	0.696	0.619	0.378	0.463	0.614	0.541	0.546	0.616	0.701	0.682	0.777	0.695
HCC-366						0.309	0.375	0.387	0.311	0.325	0.743	0.736	0.699	0.801	0.784	0.336	0.371	0.355	0.306	0.347
HCC-827	0.716	0.871	0.64	0.587	0.746	0.482		0.542	0.399	0.623	0.95		0.872	0.942	0.989	0.286		0.332	0.185	0.27

Cell Line	relative viability ([1]; first compound 0.02 µM)	relative viability ([1]; first compound 0.06325 µM)	relative viability ([1]; first compound 0.2 µM)	relative viability ([1]; first compound 0.6325 µM)	relative viability ([1]; first compound 2 µM)	relative viability (BGJ398 + Trametinib; first compound 0.01 µM)	relative viability (BGJ398 + Trametinib; first compound 0.03162 µM)	relative viability (BGJ398 + Trametinib; first compound 0.1 µM)	relative viability (BGJ398 + Trametinib; first compound 0.3162 µM)	relative viability (BGJ398 + Trametinib; first compound 1 µM)	relative viability (BGJ398 + Linsitinib; first compound 0.01 µM)	relative viability (BGJ398 + Linsitinib; first compound 0.03162 µM)	relative viability (BGJ398 + Linsitinib; first compound 0.1 µM)	relative viability (BGJ398 + Linsitinib; first compound 0.3162 µM)	relative viability (BGJ398 + Linsitinib; first compound 1 µM)	relative viability (BGJ398 + Decitabine; first compound 0.01 µM)	relative viability (BGJ398 + Decitabine; first compound 0.03162 µM)	relative viability (BGJ398 + Decitabine; first compound 0.1 µM)	relative viability (BGJ398 + Decitabine; first compound 0.3162 µM)	relative viability (BGJ398 + Decitabine; first compound 1 µM)
HOP-62	0.725	0.831	0.904	0.9	0.922	0.395	0.364	0.359	0.291	0.288	1	1.11	1.02	0.876	0.946	0.232	0.245	0.204	0.225	0.215
IA-LM											0.532	0.499	0.501	0.496	0.481					
LC-2-ad	0.984	0.727	1.08	1.07	0.739	0.912	0.935	0.892	0.873	0.985	0.827	0.88	0.817	0.87	0.843	0.699	0.855	0.899	0.771	0.852
LCLC-97TM1	0.767	0.839	0.823	0.671	0.499	0.185	0.205	0.215	0.21	0.218	0.169	0.159	0.194	0.212	0.186	0.238	0.222	0.214	0.216	0.225
LCLC-103H	1.02	0.966	0.906	0.966	0.806	0.703	0.623	0.65	0.642	0.535	1.05	1.15	1.07	1.02	1.1	0.714	0.631	0.67	0.628	0.566
LK-2	0.186	0.202	0.28	0.175	0.175	0.788	0.726	0.561	0.32	0.268	0.519	0.438	0.242	0.214	0.171	0.234	0.262	0.222	0.157	0.137
LOU-NH91	0.363	0.344	0.334	0.346	0.314	0.718	0.689	0.779	0.705	0.759	0.903	0.539	0.933	0.557	0.911	0.837	0.676	0.813	0.649	0.821
LU99A	0.296	0.207	0.294	0.267	0.24	0.461	0.487	0.498	0.401	0.401	0.524	0.47	0.575	0.51	0.441	0.776	0.763	0.735	0.756	0.68
LXF-289	0.638	0.738	0.693	0.642	0.561	0.567	0.649	0.672	0.563	0.593	0.944	0.886	0.883	0.84	0.899	0.351	0.415	0.332	0.325	0.38
NCI-H522	1.06	1.09	1.18	1.05	0.956	0.743	0.797	0.709	0.644	0.736						0.665	0.625	0.685	0.665	0.644
NCI-H1299											0.926	1.03	0.974	0.928	0.727					
NCI-H1563	0.512	0.469	0.514	0.438	0.509						1.17	1.18	0.947	0.792	0.724					
NCI-H1623	0.379	0.431	0.474	0.47	0.335															
NCI-H1648						0.411		0.474	0.393	0.417						0.571		0.511	0.476	0.402
NCI-H1650	0.221	0.194	0.209	0.209	0.171	0.503	0.568	0.471	0.304	0.25						0.451	0.424	0.411	0.415	0.361
NCI-H1703											0.811	0.497	0.699	0.569	0.705					
NCI-H2170	0.757	0.942	0.79	0.525	0.717	0.941	0.937	1.02	0.91	0.866						0.434	0.453	0.466	0.456	0.499
NCI-H2228	0.157	0.132	0.152	0.156	0.137	0.42	0.694	0.503	0.348	0.419	0.63	0.438	0.19	0.852	0.719					
NCI-H2342	0.721	0.672	0.756	0.601	0.636	1.04	0.906	0.893	1.03	0.978						0.725	0.808	0.714	0.758	0.815
SW 900	0.163	0.176	0.173	0.223	0.21	0.723	0.679	0.655	0.735	0.568						0.447	0.421	0.371	0.469	0.43
